Tests used:
MV4-11 = test: MTS cell proliferation assay, MV4-11; format: cell-based, human; conditions: Homo sapiens; MV4-11, 72 hr; read-out: MTS proliferation assay
Method: Cell proliferation was measured using the CellTiter 96 Aqueous Non-Radioactive Cell Proliferation Assay (Promega). […] MTS is bioreduced by cells into a formazan product that is soluble in tissue culture medium. The absorbance of the formazan product at 490 nm can be measured directly from assay plates without additional processing. The quantity of formazan product as measured by the amount of 490 nm absorbance is directly proportional to the number of living cells in culture. Cells were seeded into 96-well or 384-well clear plates in a volume of 200 μL (96-well) or 50 μL (384-well) at optimized densities ranging from 1,000 to 40,000 cells per well for 96-well plates or 1,200 to 25,000 cells per well for 384-well plates depending on cell-line. After 4-6 hr recovery, serially diluted compounds in DMSO were added to the cells using (0.1% v/v final DMSO concentration). Cells were then grown at 37° C. in a humidified incubator with 5% CO2 for 72 hr. A 20:1 [3-(4,5-dimethylthiazol-2-yl)-5-(3-carboxymethoxyphenyl)-2-(4-sulfophenyl)-2H-tetrazolium](MTS):phenazine methosulfate (PMS) solution in DPBS was made immediately before use, added to each well, and cells were incubated for 1.5 hr at 37° C. The absorbance at 490 nm was then measured using a platereader. Absorbance values were normalized as percent of control (cells incubated in the presence of 0.1% v/v DMSO). Sigmoidal dose-response curves were plotted using log(inhibitor) vs. response—Variable slope (four parameters) model with a top value constrained to 100% (GraphPad Prism version 6.00 for Windows, GraphPad Software, La Jolla California USA). […] To determine potential of compounds of the invention to affect viability of hematological cancers, cell lines representing various tumor types were selected and tested. […] In addition, two murine cell lines were tested: A20 […].

CMK = test: MTS cell proliferation assay, CMK; format: cell-based; conditions: Homo sapiens, 72 hr
Method: (§1) Cell proliferation was measured using the CellTiter 96 Aqueous Non-Radioactive Cell Proliferation Assay (Promega). The CellTiter 96® AQueous Assay is composed of solutions of a tetrazolium compound [3-(4,5-dimethylthiazol-2-yl)-5-(3-carboxymethoxyphenyl)-2-(4-sulfophenyl)-2H-tetrazolium, inner salt; MTS] and an electron coupling reagent (phenazine methosulfate) PMS. MTS is bioreduced by cells into a formazan product that is soluble in tissue culture medium. The absorbance of the formazan product at 490 nm can be measured directly from assay plates without additional processing. The quantity of formazan product as measured by the amount of 490 nm absorbance is directly proportional to the number of living cells in culture. Cells were seeded into 96-well or 384-well clear plates in a volume of 200 μL (96-well) or 50 μL (384-well) at optimized densities ranging from 1,000 to 40,000 cells per well for 96-well plates or 1,200 to 25,000 cells per well for 384-well plates depending on cell-line. After 4-6 hr recovery, serially diluted compounds in DMSO were added to the cells using (0.1% v/v final DMSO concentration). Cells were then grown at 37° C. in a humidified incubator with 5% CO2 for 72 hr. A 20:1 [3-(4,5-dimethylthiazol-2-yl)-5-(3-carboxymethoxyphenyl)-2-(4-sulfophenyl)-2H-tetrazolium](MTS):phenazine methosulfate (PMS) solution in DPBS was made immediately before use, added to each well, and cells were incubated for 1.5 hr at 37° C. The absorbance at 490 nm was then measured using a platereader. Absorbance values were normalized as percent of control (cells incubated in the presence of 0.1% v/v DMSO). Sigmoidal dose-response curves were plotted using log(inhibitor) vs. response—Variable slope (four parameters) model with a top value constrained to 100% (GraphPad Prism version 6.00 for Windows, GraphPad Software, La Jolla California USA). […] Curves for compounds that reached a plateau were matched exactly to the measurement points. […]

Mec-1 = test: MTS cell proliferation assay, Mec-1; format: cell-based; conditions: Homo sapiens, MEC1; Mec-1, 72 hr
Method: as §1

Jeko = test: MTS cell proliferation assay, Jeko; format: cell-based; conditions: Homo sapiens, 72 hr
Method: Cell proliferation was measured using the CellTiter 96 Aqueous Non-Radioactive Cell Proliferation Assay (Promega). The CellTiter 96® AQueous Assay is composed of solutions of a tetrazolium compound [3-(4,5-dimethylthiazol-2-yl)-5-(3-carboxymethoxyphenyl)-2-(4-sulfophenyl)-2H-tetrazolium, inner salt; MTS] and an electron coupling reagent (phenazine methosulfate) PMS. MTS is bioreduced by cells into a formazan product that is soluble in tissue culture medium. The absorbance of the formazan product at 490 nm can be measured directly from assay plates without additional processing. The quantity of formazan product as measured by the amount of 490 nm absorbance is directly proportional to the number of living cells in culture. Cells were seeded into 96-well or 384-well clear plates in a volume of 200 μL (96-well) or 50 μL (384-well) at optimized densities ranging from 1,000 to 40,000 cells per well for 96-well plates or 1,200 to 25,000 cells per well for 384-well plates depending on cell-line. After 4-6 hr recovery, serially diluted compounds in DMSO were added to the cells using (0.1% v/v final DMSO concentration). Cells were then grown at 37° C. in a humidified incubator with 5% CO2 for 72 hr. A 20:1 [3-(4,5-dimethylthiazol-2-yl)-5-(3-carboxymethoxyphenyl)-2-(4-sulfophenyl)-2H-tetrazolium](MTS):phenazine methosulfate (PMS) solution in DPBS was made immediately before use, added to each well, and cells were incubated for 1.5 hr at 37° C. The absorbance at 490 nm was then measured using a platereader. Absorbance values were normalized as percent of control (cells incubated in the presence of 0.1% v/v DMSO). Sigmoidal dose-response curves were plotted using log(inhibitor) vs. response—Variable slope (four parameters) model with a top value constrained to 100% (GraphPad Prism version 6.00 for Windows, GraphPad Software, La Jolla California USA). […] Curves for compounds that reached a plateau were matched exactly to the measurement points. […] To determine potential of compounds of the invention to affect viability of hematological cancers, cell lines representing various tumor types were selected and tested. Human cell lines tested were: MOLM-13 (acute myeloid leukemia (AML)), MV4-11 (AML), U-2932 (ABC-diffuse large B cell lymphoma), U-937 (histiocytic lymphoma), U-266 (multiple myeloma), RPMI-8226 (multiple myeloma), CMK (megakaryoblastic cell line), SU-DHL-4 (GCB-diffuse large B cell lymphoma), KG1 (AML), Mec-1 (chronic B-cell leukemia), MOLM-16 (AML), Jeko (B-cell lymphoma), WSU-DLCL2 (B-cell lymphoma), JJN3 (plasma cell leukemia), SU-DHL-6 (GCB-diffuse large B cell lymphoma), and Z-138 (mantle cell lymphoma). In addition, two murine cell lines were tested: A20 […].

JJN3 = test: MTS cell proliferation assay, JJN3; format: cell-based; conditions: Homo sapiens, JJN-3; JJN3, 72 hr
Method: as §1

[1] = Oral pharmacokinetics in mice; format: in vivo; conditions: for Tmax / bioavailability: mouse, in vivo, oral; for bioavailability: read-out: oral bioavailability % F
[2] = molecular target: T1, Full-length phosphorylated PDK1 (Homo sapiens, UniProt O15530); test: Fluorescence polarization PIF-tide binding assay; conditions: PDK1 saturating amounts of compound, FIG. 13C
T1 sequence (O15530 1-556): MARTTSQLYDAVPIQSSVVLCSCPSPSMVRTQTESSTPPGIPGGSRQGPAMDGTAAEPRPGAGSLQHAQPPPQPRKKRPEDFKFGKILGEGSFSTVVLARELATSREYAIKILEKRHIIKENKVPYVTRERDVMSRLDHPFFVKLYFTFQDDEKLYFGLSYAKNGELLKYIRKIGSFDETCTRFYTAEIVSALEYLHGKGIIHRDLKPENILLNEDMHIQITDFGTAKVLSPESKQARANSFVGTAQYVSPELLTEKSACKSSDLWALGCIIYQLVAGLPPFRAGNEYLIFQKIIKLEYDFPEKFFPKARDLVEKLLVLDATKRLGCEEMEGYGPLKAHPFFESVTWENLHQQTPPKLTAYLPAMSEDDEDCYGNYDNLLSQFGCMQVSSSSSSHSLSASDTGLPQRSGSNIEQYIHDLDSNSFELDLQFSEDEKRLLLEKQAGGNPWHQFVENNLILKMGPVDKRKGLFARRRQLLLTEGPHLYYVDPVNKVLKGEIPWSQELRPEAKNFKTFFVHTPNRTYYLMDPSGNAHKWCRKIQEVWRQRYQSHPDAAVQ

Row | Compound | EC50 (MV4-11) | EC50 (CMK) | EC50 (Mec-1) | EC50 (Jeko) | EC50 (JJN3) | half-life [1] | Tmax [1] | bioavailability [1] | PIF-tide binding to PDK1 (fluorescence polarization, words) [2]
1 | C[C@H](NC(=O)c1nc(C#N)cnc1NCc1ccc(-c2cnc3[nH]nc(N)c3n2)cc1)c1ccc(F)c(F)c1 [Compound 1, 3-[4-(3-Amino-1H-pyrazolo[3,4-b]pyrazin-5-yl)-benzylamino]-6-cyano-pyrazine-2-carboxylic acid [1-(3,4-difluoro-phenyl)-ethyl]-amide] | 5 nM | 222 nM | 415 nM | 286 nM | 846 nM | long half-life | 4 to 8 h | > 40% | significant inhibition of PIF-tide binding
2 | CNc1n[nH]c2ncc(-c3ccc(CNc4ncc(C#N)nc4C(=O)N[C@@H](C)c4ccc(F)c(F)c4)cc3)cc12 [Compound 2, 6-Cyano-3-[4-(3-methylamino-1H-pyrazolo[3,4-b]pyridin-5-yl)-benzylamino]-pyrazine-2-carboxylic acid [1-(3,4-difluoro-phenyl)-ethyl]-amide] | 7 nM | 182 nM | 215 nM | 279 nM | 453 nM | long half-life | 4 to 8 h | > 40% | significant inhibition of PIF-tide binding

— US20240207258A1, “HETEROCYCLIC PDK1 INHIBITORS FOR USE TO TREAT CANCER” (Viracta Therapeutics, Inc., priority 2015, published 2024)
